# In patent US7498326B2, “Compounds” (Glaxo Group Limited, priority 2002, dated 2009):
# Where a name gives a salt, the structure may show the parent alone.
# Assay: MIC of test compounds against various organisms
# Format: cell-based
# Details: versus all these organisms: S. epidermidis CL7, S. aureus WCUH29, S. pneumoniae 1629, S. pyogenes CN10, H. influenzae ATCC 49247, E. faecalis 2, M. catarrhalis Ravasio, E. coli 7623
# Procedure: The MIC (μg/ml) of test compounds against various organisms was determined including: S. epidermidis CL7, S. aureus WCUH29, S. pneumoniae 1629, S. pyogenes CN10, H. influenzae ATCC 49247, E. faecalis 2, M. catarrhalis Ravasio, E. coli 7623. Examples 1, 5, 6, 7, 8, 11, 13 have an MIC≦2 μg/ml versus all these organisms.
row,Structure (SMILES),MIC
1,"COc1cnc2cccc(C(O)CN3CCC(NCc4ccc5c(n4)NC(=O)CS5)CC3)c2n1 (racemic) [Example 5, 6-{[(1-{(2R/S)-2-hydroxy-2-[3-(methyloxy)-5-quinoxalinyl]ethyl}-4-piperidinyl)amino]methyl}-2H-pyrido[3,2-b][1,4]thiazin-3(4H)-one dihydrochloride]",≤ 2 µg/mL
2,"N#Cc1ccc2nccc(CCN3CC[C@H](NCc4ccc5c(n4)NC(=O)CO5)[C@H](O)C3)c2c1 (stereo in doubt) [Example 12, 4-[2-(3-hydroxy-4-{[(3-oxo-3,4-dihydro-2H-pyrido[3,2-b][1,4]oxazin-6-yl)methyl]amino}-1-piperidinyl)ethyl]-6-quinolinecarbonitrile (E1 isomer)]",≤ 16 µg/mL
3,"N#Cc1ccc2nccc(CCN3CCC(NCc4ccc5c(n4)NC(=O)CO5)CC3)c2c1 [Example 1, 4-2-{4-[(3-Oxo-3,4-dihydro-2H-pyrido[3,2-b][1,4]oxazin-6-ylmethyl)-amino]-piperidin-1-yl}-ethyl)-quinoline-6-carbonitrile dihydrochloride]",≤ 2 µg/mL
4,"O=C1CSc2ccc(CN[C@H]3CCN(CCc4ccnc5ccc6c(c45)OCCO6)C[C@H]3F)nc2N1 [Example 4, 6({(3R,4S)-1-[2-(2,3-Dihydro-[1,4]dioxino[2,3-f]quinolin-10-yl)-ethyl]-3-fluoro-piperidin-4-ylamino}-methyl)-4H-pyrido[3,2-b][1,4]thiazin-3-one]",≤ 16 µg/mL
5,"COc1cnc2cccc(C(O)CN3CCC(NCc4cc5c(cn4)OCCO5)CC3)c2n1 (stereo not drawn) [Example 6, (1R/S)-2-{4-[(2,3-dihydro[1,4]dioxino[2,3-c]pyridin-7-ylmethyl)amino]1-1-piperidinyl}-1-[3-(methyloxy)-5-quinoxalinyl]ethanol dihydrochloride]",≤ 2 µg/mL
6,"Clc1cnc2ccc3c(c2c1CCN1CCC(NCc2cc4c(cn2)OCCO4)CC1)OCCO3 [Example 7, {1-[2-(9-Chloro-2,3-dihydro-[1,4]dioxino[2,3-f]quinolin-10-yl)-ethyl]-piperidin-4-yl}-(2,3-dihydro-[1,4]dioxino[2,3-c]pyridin-7-ylmethyl)-amine dihydrochloride]",≤ 2 µg/mL
7,"COc1ccc2cccc(C(O)CN3CCC(NCc4ccc5c(n4)NC(=O)CO5)CC3)c2n1 (stereo not drawn) [Example 8, 6-{[(1-{2-hydroxy-2-[2-(methyloxy)-8-quinolinyl]ethyl}4-piperidinyl)amino]methyl}-2H-pyrido[3,2-b][1,4]oxazin-3(4H)-one]",≤ 2 µg/mL
8,"N#Cc1ccc2nccc(CCN3CC[C@H](NCc4ccc5c(n4)NC(=O)CS5)[C@H](O)C3)c2c1 [Example 11, 4-[2-(3-hydroxy-4-{([(3-oxo-3,4-dihydro-2H-pyrido[3,2-b][1,4]thiazin-6-yl)methyl]amino}-1-piperidinyl)ethyl]-6-quinolinecarbonitriledihydrochloride (E2 isomer)]",≤ 2 µg/mL

# Same assay, conditions: versus some of these organisms (which of the eight listed strains is not stated)
row,Structure (SMILES),MIC
1,"O=C1CSc2ccc(CNC3CCN(CCc4ccnc5ccccc45)CC3)nc2N1 [Example 9, 6-[({1-[2-(4-quinolinyl)ethyl]-4-piperidinyl}amino)methyl]-2H-pyrido[3,2-b][1,4]thiazin-3(4H)-one dihydrochloride]",≤ 16 µg/mL
